Measured values reported in patent publication US12065441B2, “Pyrazolopyrimidine derivative, use thereof and pharmaceutical composition” (GENGLE THERAPEUTICS, INC., priority 2018, dated 2024).
Read-outs that look alike come from different tables or passages of the source.

Assays:
[1] = molecular target: JAK1 (Homo sapiens, UniProt P23458); assay: Caliper Mobility Shift Assay, kinase enzyme activity, JAK1; format: biochemical; details: for inhibitory effect on kinase JAK1 (in words): JAK1, summary of Table 1; for IC50: JAK1, read-out: Kinase inhibitory activity (IC50, nM) JAK1
Procedure: (§1) The half-inhibition concentration IC50 of the compound (the concentration of the compound required to inhibit the enzyme activity to 50%) is measured by mixing the fixed enzyme with a specific substrate and different concentrations of the test compound. The measurement method used was Caliper Mobility Shift Assay, the kinases measured were JAK1, JAK2, JAK3 and TYK2, and the standard reference compound used was staurosporine.

[2] = molecular target: JAK2 (Homo sapiens, UniProt O60674); assay: Caliper Mobility Shift Assay, kinase enzyme activity, JAK2; format: biochemical; details: for inhibitory effect on kinase JAK2 (in words): JAK2, summary of Table 1; for IC50: JAK2, read-out: Kinase inhibitory activity (IC50, nM) JAK2
Procedure: as §1

[3] = molecular target: T1, JAK3 (Homo sapiens, UniProt P52333); assay: Caliper Mobility Shift Assay, kinase enzyme activity, JAK3; format: biochemical; details: for inhibitory activity on JAK3 (in words): JAK3, summary of Table 1; for IC50: JAK3, read-out: Kinase inhibitory activity (IC50, nM) JAK3
T1 sequence (P52333 1-1124): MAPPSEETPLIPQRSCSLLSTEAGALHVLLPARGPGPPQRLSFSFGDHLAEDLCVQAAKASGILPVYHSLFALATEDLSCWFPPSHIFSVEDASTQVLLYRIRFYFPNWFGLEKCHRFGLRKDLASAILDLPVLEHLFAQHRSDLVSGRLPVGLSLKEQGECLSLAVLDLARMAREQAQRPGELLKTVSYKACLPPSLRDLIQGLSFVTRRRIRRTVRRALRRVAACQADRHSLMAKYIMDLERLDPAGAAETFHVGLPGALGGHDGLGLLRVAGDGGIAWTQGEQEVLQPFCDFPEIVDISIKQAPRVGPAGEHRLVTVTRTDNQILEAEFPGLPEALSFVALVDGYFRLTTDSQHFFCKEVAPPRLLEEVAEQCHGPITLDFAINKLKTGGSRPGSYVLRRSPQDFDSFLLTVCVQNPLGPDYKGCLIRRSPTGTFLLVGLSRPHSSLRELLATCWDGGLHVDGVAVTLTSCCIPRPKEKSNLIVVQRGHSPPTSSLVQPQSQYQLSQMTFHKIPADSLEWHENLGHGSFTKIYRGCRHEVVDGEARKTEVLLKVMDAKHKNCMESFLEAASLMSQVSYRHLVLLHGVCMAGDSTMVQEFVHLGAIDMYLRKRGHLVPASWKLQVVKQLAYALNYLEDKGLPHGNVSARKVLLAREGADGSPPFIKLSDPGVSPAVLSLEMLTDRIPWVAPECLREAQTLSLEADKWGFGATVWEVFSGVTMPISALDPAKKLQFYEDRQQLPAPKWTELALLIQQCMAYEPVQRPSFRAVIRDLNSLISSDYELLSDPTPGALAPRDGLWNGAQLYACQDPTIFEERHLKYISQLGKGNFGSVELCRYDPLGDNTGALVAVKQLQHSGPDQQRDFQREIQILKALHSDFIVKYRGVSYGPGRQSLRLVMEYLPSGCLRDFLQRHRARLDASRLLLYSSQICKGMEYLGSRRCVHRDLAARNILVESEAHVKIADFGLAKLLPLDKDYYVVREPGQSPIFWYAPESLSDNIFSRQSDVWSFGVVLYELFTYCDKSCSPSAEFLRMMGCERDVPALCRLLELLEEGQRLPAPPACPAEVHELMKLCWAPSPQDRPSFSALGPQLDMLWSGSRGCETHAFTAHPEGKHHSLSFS
Procedure: as §1

[4] = molecular target: TYK2 (Homo sapiens, UniProt P29597); assay: Caliper Mobility Shift Assay, kinase enzyme activity, TYK2; format: biochemical; details: for inhibitory activity on TYK2 (in words): TYK2, summary of Table 1; for IC50: TYK2, read-out: Kinase inhibitory activity (IC50, nM) TYK2
Procedure: as §1

[5] = Pharmacokinetics experiment in mice (intravenous and oral); format: in vivo; details: for F: 10 mg/kg oral vs 2 mg/kg intravenous; for AUC(0-t) / MRT inf / clearance / half-life / Vd / Cmax / Tmax: both sexes, mouse, blood, single dose; for half-life: read-out: Terminal t1/2 (converted); for Vd: read-out: Vss
Procedure: Experimental animals: mice, male and female, weight: 23-25 g;
Preparation of the test articles: The target compounds (Ig, Ii, and Ip) were prepared as 0.4 mg/mL (for intravenous administration) and 1.0 mg/mL (for oral administration), for later use. Administration route: oral administration/intravenous injection. Dosing volume and frequency: 5 mL/kg (intravenous injection) or 10 mL/kg (oral administration), single dose.
Sample collection: Blood was collected at the following time points, 5 min, 15 min, 30 min, 1 hr, 2 hr, 4 hr, 8 hr and 24 hr after administration.
Sample analysis: LC-MS/MS method was used to detect the collected samples. The instrument model used was Triple Quad 6500+.
Pharmacokinetic data analysis: WinNolin was used to fit and calculate the obtained blood drug concentration data according to the non-compartmental model method, and partial results are summarized in Table 2.

TYK2, sequence (P29597 whole entry): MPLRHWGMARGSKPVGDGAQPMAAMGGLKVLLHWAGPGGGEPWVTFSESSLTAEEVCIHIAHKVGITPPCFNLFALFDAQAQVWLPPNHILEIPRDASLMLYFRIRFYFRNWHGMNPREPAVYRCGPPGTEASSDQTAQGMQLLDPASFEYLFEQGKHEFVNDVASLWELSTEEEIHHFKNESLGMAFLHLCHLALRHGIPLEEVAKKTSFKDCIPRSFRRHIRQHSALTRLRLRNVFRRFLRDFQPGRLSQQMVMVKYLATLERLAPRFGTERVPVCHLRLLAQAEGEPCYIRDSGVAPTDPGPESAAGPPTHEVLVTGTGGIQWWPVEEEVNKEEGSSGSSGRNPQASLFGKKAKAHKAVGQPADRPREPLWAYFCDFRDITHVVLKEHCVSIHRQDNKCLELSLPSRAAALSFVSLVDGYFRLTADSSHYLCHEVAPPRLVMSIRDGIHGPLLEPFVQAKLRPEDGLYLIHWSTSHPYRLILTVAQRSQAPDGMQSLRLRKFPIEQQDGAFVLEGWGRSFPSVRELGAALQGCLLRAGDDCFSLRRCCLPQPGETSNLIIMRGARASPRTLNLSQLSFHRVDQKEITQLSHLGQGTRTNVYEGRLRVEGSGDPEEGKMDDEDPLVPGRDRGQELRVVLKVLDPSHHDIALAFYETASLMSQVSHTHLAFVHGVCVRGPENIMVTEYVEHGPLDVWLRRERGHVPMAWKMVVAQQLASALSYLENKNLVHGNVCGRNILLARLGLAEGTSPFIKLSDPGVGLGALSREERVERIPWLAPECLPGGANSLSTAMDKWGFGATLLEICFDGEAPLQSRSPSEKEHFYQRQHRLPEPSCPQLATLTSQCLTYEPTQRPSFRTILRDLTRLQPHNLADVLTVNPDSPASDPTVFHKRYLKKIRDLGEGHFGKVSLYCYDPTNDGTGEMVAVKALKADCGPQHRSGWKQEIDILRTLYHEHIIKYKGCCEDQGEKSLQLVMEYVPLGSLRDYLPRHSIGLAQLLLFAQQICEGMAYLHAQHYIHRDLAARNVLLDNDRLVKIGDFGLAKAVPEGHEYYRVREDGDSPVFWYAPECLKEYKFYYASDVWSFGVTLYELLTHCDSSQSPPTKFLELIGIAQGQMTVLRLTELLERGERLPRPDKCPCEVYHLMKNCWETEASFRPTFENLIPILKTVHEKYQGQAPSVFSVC
JAK1, sequence (P23458 whole entry): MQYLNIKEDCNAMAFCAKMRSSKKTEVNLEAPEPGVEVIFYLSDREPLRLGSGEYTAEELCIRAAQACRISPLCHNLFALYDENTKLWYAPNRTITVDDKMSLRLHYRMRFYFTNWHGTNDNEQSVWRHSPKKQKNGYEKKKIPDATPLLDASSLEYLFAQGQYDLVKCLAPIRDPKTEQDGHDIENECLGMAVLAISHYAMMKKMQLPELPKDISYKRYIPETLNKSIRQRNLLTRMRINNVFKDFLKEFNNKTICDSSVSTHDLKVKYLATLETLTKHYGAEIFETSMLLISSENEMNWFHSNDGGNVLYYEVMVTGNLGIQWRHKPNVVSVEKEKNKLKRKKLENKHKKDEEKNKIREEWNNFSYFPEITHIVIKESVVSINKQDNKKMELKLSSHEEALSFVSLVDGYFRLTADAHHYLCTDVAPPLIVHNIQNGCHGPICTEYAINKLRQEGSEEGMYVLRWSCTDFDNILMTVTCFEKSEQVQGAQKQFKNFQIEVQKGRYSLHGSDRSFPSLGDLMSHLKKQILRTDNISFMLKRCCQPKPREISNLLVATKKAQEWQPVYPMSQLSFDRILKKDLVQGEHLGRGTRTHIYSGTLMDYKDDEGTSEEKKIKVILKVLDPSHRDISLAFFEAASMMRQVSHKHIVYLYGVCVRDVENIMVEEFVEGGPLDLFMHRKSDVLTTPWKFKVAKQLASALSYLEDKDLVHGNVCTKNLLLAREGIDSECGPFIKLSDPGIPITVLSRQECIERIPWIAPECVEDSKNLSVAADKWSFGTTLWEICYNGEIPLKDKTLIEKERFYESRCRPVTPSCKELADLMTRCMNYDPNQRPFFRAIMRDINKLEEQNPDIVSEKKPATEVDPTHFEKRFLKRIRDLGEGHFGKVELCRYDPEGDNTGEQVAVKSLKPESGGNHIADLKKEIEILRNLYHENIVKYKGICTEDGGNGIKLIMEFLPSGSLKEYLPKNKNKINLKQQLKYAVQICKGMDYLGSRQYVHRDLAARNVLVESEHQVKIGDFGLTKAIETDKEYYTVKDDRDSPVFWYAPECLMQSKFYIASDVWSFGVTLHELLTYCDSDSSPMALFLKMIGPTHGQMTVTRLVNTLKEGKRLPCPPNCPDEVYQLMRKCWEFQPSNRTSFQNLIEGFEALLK
JAK2, sequence (O60674 whole entry): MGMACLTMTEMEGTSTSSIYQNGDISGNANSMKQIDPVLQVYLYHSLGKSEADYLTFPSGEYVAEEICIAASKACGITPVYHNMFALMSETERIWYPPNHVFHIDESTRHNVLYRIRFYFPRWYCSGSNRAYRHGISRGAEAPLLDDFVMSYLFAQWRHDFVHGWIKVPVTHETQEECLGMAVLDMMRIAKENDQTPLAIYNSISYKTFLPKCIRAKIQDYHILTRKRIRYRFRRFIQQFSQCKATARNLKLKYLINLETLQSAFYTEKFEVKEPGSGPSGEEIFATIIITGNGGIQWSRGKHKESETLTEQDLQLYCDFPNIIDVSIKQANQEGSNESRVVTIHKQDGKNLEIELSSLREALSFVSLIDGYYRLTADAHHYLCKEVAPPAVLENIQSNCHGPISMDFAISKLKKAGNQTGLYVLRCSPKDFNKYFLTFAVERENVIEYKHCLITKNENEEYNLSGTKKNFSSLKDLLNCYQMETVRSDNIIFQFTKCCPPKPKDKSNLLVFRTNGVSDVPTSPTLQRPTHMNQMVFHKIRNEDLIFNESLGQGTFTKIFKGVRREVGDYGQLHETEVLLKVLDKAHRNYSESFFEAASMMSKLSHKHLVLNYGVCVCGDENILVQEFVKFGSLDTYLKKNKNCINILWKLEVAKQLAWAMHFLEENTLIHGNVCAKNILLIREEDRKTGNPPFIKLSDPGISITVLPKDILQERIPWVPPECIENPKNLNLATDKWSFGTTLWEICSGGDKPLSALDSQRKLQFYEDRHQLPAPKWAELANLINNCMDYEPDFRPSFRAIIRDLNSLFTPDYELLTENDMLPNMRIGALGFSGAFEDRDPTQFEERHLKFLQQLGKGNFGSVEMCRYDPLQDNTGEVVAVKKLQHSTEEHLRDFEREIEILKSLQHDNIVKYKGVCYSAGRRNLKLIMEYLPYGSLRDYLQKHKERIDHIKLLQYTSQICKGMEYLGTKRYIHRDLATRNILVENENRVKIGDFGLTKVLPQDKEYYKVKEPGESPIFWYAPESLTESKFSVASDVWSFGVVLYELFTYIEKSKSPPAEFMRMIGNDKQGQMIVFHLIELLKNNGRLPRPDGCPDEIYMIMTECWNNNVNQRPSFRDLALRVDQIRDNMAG

Row | Compound | inhibitory effect on kinase JAK1 (in words) [1] | IC50 [1] [nM] | inhibitory effect on kinase JAK2 (in words) [2] | IC50 [2] [nM] | inhibitory activity on JAK3 (in words) [3] | IC50 [3] [nM] | inhibitory activity on TYK2 (in words) [4] | IC50 [4] [nM] | F [5] [%] | AUC(0-t) ([5]; 2 mg/kg, intravenous injection) [µg·h/mL] | MRT inf ([5]; 2 mg/kg, intravenous injection) [min] | clearance ([5]; 2 mg/kg, intravenous injection) [L/h/kg] | half-life ([5]; 2 mg/kg, intravenous injection) [min] | Vd ([5]; 2 mg/kg, intravenous injection) [L/kg] | AUC(0-t) ([5]; 10 mg/kg, oral administration) [µg·h/mL] | Cmax ([5]; 10 mg/kg, oral administration) [µg/mL] | Tmax ([5]; 10 mg/kg, oral administration) [min] | half-life ([5]; 10 mg/kg, oral administration) [min]
1 | N#CCC1(n2cc(-c3ncnc4[nH]ncc34)cn2)CN(C2CCN(C(=O)c3ccnc(C(F)(F)F)c3F)CC2)C1 [Compound Ii] | strong inhibitory effect | 39 | strong inhibitory effect | 126 | weak inhibitory activity | 3770 | weak inhibitory activity | 2660 | 37.9 | 0.9 | 35.8 | 2.24 | 50 | 1.32 | 1.71 | 0.904 | 60 | 59.2
2 | CCS(=O)(=O)N1CC(CC#N)(n2cc(-c3ncnc4[nH]ncc34)cn2)C1 [Compound Ip] | – | – | strong inhibitory effect | 12 | weak inhibitory activity | 423 | weak inhibitory activity | 209 | 99.4 | 1.2 | 63.6 | 1.64 | 83.4 | 1.74 | 5.95 | 3.38 | 15 | 84
3 | CCS(=O)(=O)N1CCC(N2CC(CC#N)(n3cc(-c4ncnc5[nH]ncc45)cn3)C2)CC1 [Compound Ig] | strong inhibitory effect | 58 | strong inhibitory effect | 47 | weak inhibitory activity | 2060 | weak inhibitory activity | 1230 | 51.7 | 0.883 | 26.8 | 2.25 | 23.4 | 0.997 | 2.29 | 1.31 | 22.5 | 70.8
